Data from ChEMBL document CHEMBL3120136 (J Med Chem, 2014).
In brackets after ≈: the same amount, converted by molar mass. One block for each molecule: values may come before it.

Legend:
[1] = test system: Hepatitis C virus; experiment: Antiviral activity against Hepatitis C virus infected in human HuH7 cells assessed as inhibition of HCV subgenomic replicon replication after 72 hrs by ELISA; type: functional, organism-based, Hepacivirus hominis, Huh-7; conditions: Hepatitis C virus, Huh-7, 72 h; read-out: EC50
[2] = Inhibition of Hepatitis C virus full-length NS3/4A protease assessed as quenched-fluorogenic RET-S1 substrate cleavage incubated for 10 mins prior to substrate addition by FRET analysis; parameters: species or system Hepacivirus hominis
[3] = Ratio of AUC (0 to 24 hrs) in liver to plasma in Sprague-Dawley rat at 30 mg/kg, po by HPLC-MS/MS analysis; type: ADME, organism-based; parameters: dose 30 mg/kg, route oral; conditions: Sprague-Dawley, liver and plasma, read-out: Ratio AUC
[4] = AUC (0 to 24 hrs) in Sprague-Dawley rat plasma at 30 mg/kg, po by HPLC-MS/MS analysis; type: ADME, organism-based; parameters: time < 24 hr, dose 30 mg/kg, route oral
[5] = AUC (0 to 24 hrs) in Sprague-Dawley rat liver at 30 mg/kg, po by HPLC-MS/MS analysis; type: ADME, organism-based; parameters: time < 24 hr, dose 30 mg/kg, route oral
[6] = Plasma clearance in rat assessed as extraction ratio; type: ADME, organism-based; conditions: read-out: ERH
[7] = Efflux ratio of permeability from basolateral to apical side over apical to basolateral side in human Caco2 cells; type: ADME, cell-based; conditions: Caco-2
[8] = Permeability from apical to basolateral side of human Caco2 cells; type: ADME, cell-based; conditions: Caco-2, read-out: permeability
[9] = Aqueous solubility of the compound at pH 6.5 by modified shake-flask method; type: physicochemical
[10] = Aqueous solubility of the compound at pH 7.4 by modified shake-flask method; type: physicochemical
[11] = Aqueous solubility of the compound at pH 1.2 by modified shake-flask method; type: physicochemical
[12] = Metabolic stability in dog hepatocytes assessed as extraction ratio at 1 uM; type: ADME, cell-based, Canis lupus familiaris, Hepatocyte; conditions: read-out: ERH
[13] = Metabolic stability in cynomolgus monkey hepatocytes assessed as extraction ratio at 1 uM; type: ADME, cell-based, Macaca fascicularis, Hepatocyte; conditions: read-out: ERH
[14] = Metabolic stability in human hepatocytes assessed as extraction ratio at 1 uM; type: ADME, cell-based, Hepatocyte; conditions: read-out: ERH
[15] = Metabolic stability in rat hepatocytes assessed as extraction ratio at 1 uM; type: ADME, cell-based, Hepatocyte; conditions: read-out: ERH
[16] = Lipophilicity, log D of the compound; type: physicochemical; conditions: octanol/water
[17] = test system: Rattus norvegicus; experiment: Volume of distribution at steady state in Sprague-Dawley rat at 1 mg/kg, iv by HPLC-MS/MS analysis; conditions: in vivo
[18] = Ratio of EC50 for Hepatitis C virus infected in human HuH7 cells to IC50 for Hepatitis C virus full-length NS3/4A protease; parameters: species or system Huh-7
[19] = test system: Hepatitis C virus; experiment: Antiviral activity against Hepatitis C virus genotype 3 infected in human HuH7 cells assessed as decrease in replicon RNA level after 2 days by TaqMan Gold RT-PCR analysis; type: functional, organism-based, Hepacivirus hominis; conditions: genotype 3, Huh-7, 48 h
[20] = test system: Hepatitis C virus; experiment: Antiviral activity against Hepatitis C virus genotype 1b infected in human HuH7 cells assessed as decrease in replicon RNA level after 2 days by TaqMan Gold RT-PCR analysis; type: functional, organism-based, Hepacivirus hominis; conditions: Huh-7, 48 h
[21] = test system: Hepatitis C virus; experiment: Antiviral activity against Hepatitis C virus genotype 2 infected in human HuH7 cells assessed as decrease in replicon RNA level after 2 days by TaqMan Gold RT-PCR analysis; type: functional, organism-based, Hepacivirus hominis; conditions: genotype 2, Huh-7, 48 h
[22] = Inhibition of Hepatitis C virus genotype 3a NS3/4A protease using Ac-DE-Dap(QXL520)-EE-Abu-psi-[COO]-AS-Cys(5-FAMsp)-NH2 as substrate by FRET analysis; parameters: species or system Hepatitis C virus subtype 3a
[23] = Inhibition of Hepatitis C virus genotype 2b NS3/4A protease using Ac-DE-Dap(QXL520)-EE-Abu-psi-[COO]-AS-Cys(5-FAMsp)-NH2 as substrate by FRET analysis; parameters: species or system Hepatitis C virus subtype 2b
[24] = Inhibition of Hepatitis C virus genotype 6 NS3/4A protease using Ac-DE-Dap(QXL520)-EE-Abu-psi-[COO]-AS-Cys(5-FAMsp)-NH2 as substrate by FRET analysis
[25] = Inhibition of Hepatitis C virus genotype 5 NS3/4A protease using Ac-DE-Dap(QXL520)-EE-Abu-psi-[COO]-AS-Cys(5-FAMsp)-NH2 as substrate by FRET analysis
[26] = Inhibition of Hepatitis C virus genotype 4 NS3/4A protease using Ac-DE-Dap(QXL520)-EE-Abu-psi-[COO]-AS-Cys(5-FAMsp)-NH2 as substrate by FRET analysis
[27] = Inhibition of Hepatitis C virus genotype 1b NS3/4A protease using Ac-DE-Dap(QXL520)-EE-Abu-psi-[COO]-AS-Cys(5-FAMsp)-NH2 as substrate by FRET analysis; parameters: species or system Hepatitis C virus subtype 1b
[28] = Inhibition of Hepatitis C virus genotype 1a NS3/4A protease using Ac-DE-Dap(QXL520)-EE-Abu-psi-[COO]-AS-Cys(5-FAMsp)-NH2 as substrate by FRET analysis; parameters: species or system Hepatitis C virus subtype 1a
[29] = Dissociation constant, pKa of the compound; type: physicochemical
[30] = test system: Hepatitis C virus; experiment: Ratio of EC50 for Hepatitis C virus harboring NS3/4A protease A156T mutant gene to EC50 for Hepatitis C virus harboring wild type NS3/4A protease infected in human HuH7 cells; type: functional, Hepacivirus hominis, Huh-7
[31] = test system: Hepatitis C virus; experiment: Antiviral activity against Hepatitis C virus harboring NS3/4A protease A156T mutant gene infected in human HuH7 cells assessed as inhibition of HCV subgenomic replicon replication after 72 hrs by ELISA; type: functional, organism-based, Hepacivirus hominis; conditions: Huh-7, 72 h
[32] = test system: Hepatitis C virus; experiment: Antiviral activity against Hepatitis C virus harboring wild type NS3/4A protease infected in human HuH7 cells assessed as inhibition of HCV subgenomic replicon replication after 72 hrs by ELISA; type: functional, organism-based, Hepacivirus hominis; conditions: Huh-7, 72 h
[33] = test system: Hepatitis C virus; experiment: Antiviral activity against Hepatitis C virus […] isolate Con1 harboring NS3/4A protease A156T mutant gene infected in human HuH7 cells assessed as inhibition of HCV replicon replication by luciferase assay; type: functional, organism-based, Hepacivirus hominis; conditions: isolate Con1, Huh-7
[34] = test system: Hepatitis C virus; experiment: Antiviral activity against Hepatitis C virus […] isolate Con1 harboring wild type NS3/4A protease infected in human HuH7 cells assessed as inhibition of HCV replicon replication by luciferase assay; type: functional, organism-based, Hepacivirus hominis; conditions: isolate Con1, Huh-7
[35] = target: NS3 protease (Hepacivirus C, UniProt C1KIQ2, A156T); experiment: Inhibition of Hepatitis C virus genotype 1a NS3/4A protease A156T mutant expressed in Escherichia coli BL21 (DE3) cells assessed as substrate cleavage using Ac-DE-Dap(QXL520)-EE-Abu-psi-[COO]AS-C(5-FAMsp)-NH2 as substrate by plate reader analysis; parameters: species or system Hepatitis C virus subtype 1a
Chain of NS3 protease (C1KIQ2 entry or part of it A156T): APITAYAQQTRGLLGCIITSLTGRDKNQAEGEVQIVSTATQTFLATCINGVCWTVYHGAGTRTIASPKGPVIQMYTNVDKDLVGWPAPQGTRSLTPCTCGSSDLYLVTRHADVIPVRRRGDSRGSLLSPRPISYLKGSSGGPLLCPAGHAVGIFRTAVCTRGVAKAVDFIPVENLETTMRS

[36] = Inhibition of Hepatitis C virus genotype 1a wild type NS3/4A protease expressed in Escherichia coli BL21 (DE3) cells assessed as substrate cleavage using Ac-DE-Dap(QXL520)-EE-Abu-psi-[COO]AS-C(5-FAMsp)-NH2 as substrate by plate reader analysis; parameters: species or system Hepatitis C virus subtype 1a
[37] = Ratio of drug level in liver to plasma in dog; type: ADME, tissue-based, Canis lupus familiaris; conditions: liver and plasma
[38] = Oral bioavailability in monkey liver; type: ADME, organism-based, Macaca mulatta; conditions: rhesus monkey
[39] = Oral bioavailability in rat liver; type: ADME, organism-based
[40] = target: Voltage-gated inwardly rectifying potassium channel KCNH2 (Homo sapiens, UniProt Q12809); experiment: Inhibition of human ERG at 10 uM
Chain of Voltage-gated inwardly rectifying potassium channel KCNH2 (Q12809 whole entry): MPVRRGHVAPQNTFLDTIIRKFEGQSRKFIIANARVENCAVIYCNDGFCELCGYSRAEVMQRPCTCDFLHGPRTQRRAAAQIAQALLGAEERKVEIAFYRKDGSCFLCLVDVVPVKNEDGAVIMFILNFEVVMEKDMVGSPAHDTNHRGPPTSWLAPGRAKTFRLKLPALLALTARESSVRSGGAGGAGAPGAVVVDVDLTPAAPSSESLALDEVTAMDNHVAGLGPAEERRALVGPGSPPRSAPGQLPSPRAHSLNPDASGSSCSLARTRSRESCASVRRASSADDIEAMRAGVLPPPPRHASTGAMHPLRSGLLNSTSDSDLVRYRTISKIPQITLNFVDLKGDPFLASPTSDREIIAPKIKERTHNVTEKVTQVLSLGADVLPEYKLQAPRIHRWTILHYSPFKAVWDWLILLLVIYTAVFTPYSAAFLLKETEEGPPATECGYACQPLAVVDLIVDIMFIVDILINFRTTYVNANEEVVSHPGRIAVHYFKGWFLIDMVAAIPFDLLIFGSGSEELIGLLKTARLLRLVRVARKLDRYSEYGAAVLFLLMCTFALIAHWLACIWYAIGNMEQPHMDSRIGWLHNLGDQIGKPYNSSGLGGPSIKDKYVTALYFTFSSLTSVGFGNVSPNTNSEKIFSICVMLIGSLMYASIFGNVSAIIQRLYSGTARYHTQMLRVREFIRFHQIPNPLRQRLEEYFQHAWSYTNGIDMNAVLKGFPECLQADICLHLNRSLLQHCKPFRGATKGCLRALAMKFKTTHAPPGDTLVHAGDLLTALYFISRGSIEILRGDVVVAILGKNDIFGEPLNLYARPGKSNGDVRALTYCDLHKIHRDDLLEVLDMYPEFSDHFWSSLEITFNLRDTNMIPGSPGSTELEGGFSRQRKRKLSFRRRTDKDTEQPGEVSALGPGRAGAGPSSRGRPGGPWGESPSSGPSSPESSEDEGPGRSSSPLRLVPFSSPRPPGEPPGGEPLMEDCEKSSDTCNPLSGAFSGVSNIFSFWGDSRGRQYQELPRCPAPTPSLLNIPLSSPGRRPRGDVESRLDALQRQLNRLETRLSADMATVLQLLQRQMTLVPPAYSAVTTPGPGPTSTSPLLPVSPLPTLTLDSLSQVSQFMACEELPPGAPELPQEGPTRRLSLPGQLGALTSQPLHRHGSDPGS

[41] = target: T1, Cytochrome P450 3A4 (Homo sapiens, UniProt P08684); experiment: Time-dependent induction of CYP3A4 (unknown origin); type: ADME
T1 sequence (P08684 whole entry): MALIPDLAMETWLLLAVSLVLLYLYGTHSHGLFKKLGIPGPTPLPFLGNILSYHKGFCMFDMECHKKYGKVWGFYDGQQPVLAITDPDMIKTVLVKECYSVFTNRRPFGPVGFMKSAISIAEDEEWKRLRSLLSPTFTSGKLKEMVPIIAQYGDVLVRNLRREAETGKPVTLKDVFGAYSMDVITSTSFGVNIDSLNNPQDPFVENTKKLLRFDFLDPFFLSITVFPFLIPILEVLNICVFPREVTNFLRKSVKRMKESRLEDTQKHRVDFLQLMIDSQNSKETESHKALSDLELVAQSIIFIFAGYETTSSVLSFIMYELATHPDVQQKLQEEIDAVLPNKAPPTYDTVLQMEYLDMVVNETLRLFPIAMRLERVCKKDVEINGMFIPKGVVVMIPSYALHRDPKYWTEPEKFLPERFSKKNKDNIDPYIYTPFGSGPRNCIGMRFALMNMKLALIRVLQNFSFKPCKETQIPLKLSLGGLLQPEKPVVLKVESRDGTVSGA

[42] = target: T1, Cytochrome P450 3A4; experiment: Inhibition of CYP3A4 (unknown origin); type: ADME
[43] = target: Cytochrome P450 2D6 (Homo sapiens, UniProt P10635); experiment: Inhibition of CYP2D6 (unknown origin); type: ADME
Chain of Cytochrome P450 2D6 (P10635 whole entry): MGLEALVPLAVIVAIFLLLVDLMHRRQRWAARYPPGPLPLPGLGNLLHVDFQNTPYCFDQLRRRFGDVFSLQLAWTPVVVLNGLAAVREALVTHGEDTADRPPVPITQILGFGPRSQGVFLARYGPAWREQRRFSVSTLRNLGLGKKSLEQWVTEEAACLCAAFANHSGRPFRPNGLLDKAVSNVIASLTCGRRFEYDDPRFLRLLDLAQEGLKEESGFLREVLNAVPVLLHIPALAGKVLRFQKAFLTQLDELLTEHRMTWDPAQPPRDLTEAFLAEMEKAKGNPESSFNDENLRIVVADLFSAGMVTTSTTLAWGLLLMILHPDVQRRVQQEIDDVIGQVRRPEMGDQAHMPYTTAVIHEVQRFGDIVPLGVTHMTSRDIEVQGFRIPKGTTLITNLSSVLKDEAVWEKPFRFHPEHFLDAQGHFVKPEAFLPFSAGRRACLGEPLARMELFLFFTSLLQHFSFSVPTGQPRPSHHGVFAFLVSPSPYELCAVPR

[44] = target: Cytochrome P450 2C19 (Homo sapiens, UniProt P33261); experiment: Inhibition of CYP2C19 (unknown origin); type: ADME
Chain of Cytochrome P450 2C19 (P33261 whole entry): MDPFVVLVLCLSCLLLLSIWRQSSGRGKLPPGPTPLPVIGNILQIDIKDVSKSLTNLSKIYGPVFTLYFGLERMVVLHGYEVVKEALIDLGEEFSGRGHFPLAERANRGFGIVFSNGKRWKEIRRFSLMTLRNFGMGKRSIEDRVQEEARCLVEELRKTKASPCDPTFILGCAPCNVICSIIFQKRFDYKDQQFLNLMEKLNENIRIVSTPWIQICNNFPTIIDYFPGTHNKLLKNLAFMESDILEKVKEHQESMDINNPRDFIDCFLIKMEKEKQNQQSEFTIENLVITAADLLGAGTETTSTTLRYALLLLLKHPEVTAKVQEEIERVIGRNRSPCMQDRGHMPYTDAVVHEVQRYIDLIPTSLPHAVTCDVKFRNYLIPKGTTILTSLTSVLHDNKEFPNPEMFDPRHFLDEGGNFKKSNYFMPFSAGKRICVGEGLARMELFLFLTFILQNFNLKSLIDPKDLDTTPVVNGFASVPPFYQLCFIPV

[45] = target: Cytochrome P450 2C9 (Homo sapiens, UniProt P11712); experiment: Inhibition of CYP2C9 (unknown origin); type: ADME
Chain of Cytochrome P450 2C9 (P11712 whole entry): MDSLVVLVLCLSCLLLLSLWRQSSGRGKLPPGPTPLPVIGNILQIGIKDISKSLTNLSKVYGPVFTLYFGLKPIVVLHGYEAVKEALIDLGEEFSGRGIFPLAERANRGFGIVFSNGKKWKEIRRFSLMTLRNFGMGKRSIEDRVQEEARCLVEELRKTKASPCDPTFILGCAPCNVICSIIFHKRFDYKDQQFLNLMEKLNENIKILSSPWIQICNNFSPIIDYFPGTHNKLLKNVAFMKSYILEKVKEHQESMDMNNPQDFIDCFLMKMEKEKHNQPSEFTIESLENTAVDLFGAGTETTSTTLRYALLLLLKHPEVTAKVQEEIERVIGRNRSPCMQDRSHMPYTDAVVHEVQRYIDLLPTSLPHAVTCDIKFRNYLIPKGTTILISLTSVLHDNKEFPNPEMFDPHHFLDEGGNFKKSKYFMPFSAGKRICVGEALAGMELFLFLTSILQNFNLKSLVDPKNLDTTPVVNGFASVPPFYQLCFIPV

[46] = target: T2, Cytochrome P450 1A2 (Homo sapiens, UniProt P05177); experiment: Inhibition of CYP1A2 (unknown origin); type: ADME
T2 sequence (P05177 whole entry): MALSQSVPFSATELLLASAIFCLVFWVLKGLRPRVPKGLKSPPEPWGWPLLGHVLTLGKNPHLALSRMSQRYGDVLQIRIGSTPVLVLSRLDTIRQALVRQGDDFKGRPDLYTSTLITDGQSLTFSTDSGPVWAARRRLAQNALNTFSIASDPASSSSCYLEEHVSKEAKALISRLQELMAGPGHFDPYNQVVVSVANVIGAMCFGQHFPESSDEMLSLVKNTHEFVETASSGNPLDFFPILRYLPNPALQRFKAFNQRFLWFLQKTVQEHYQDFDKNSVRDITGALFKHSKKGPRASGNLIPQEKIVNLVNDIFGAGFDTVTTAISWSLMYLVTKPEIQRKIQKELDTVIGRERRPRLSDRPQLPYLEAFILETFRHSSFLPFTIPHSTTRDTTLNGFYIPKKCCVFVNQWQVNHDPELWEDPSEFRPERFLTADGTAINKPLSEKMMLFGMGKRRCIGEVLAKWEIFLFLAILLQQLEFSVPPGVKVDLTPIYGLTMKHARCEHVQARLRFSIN

[47] = Cytotoxicity against human MT4 cells; type: cell-based

EC50 [1]: 2.8 nM | IC50 [2]: 2.5 nM | Kp [3]: 132 | AUC(0-t) at 24 h [4]: 1030 ng·h/mL | AUC(0-t) at 24 h [5]: 136000 ng·h/mL | hepatic extraction ratio [6]: > 1 | efflux ratio [7]: > 2 | Papp A→B [8]: < 2 ×10⁻⁶ cm/s | solubility thermodynamic [9]: 165 µg/mL (≈ 230 µM) | solubility thermodynamic [10]: > 1000 µg/mL | solubility thermodynamic [11]: 0.5 µg/mL (≈ 0.697 µM) | hepatic extraction ratio at 1 µM [12]: 0.16 | hepatic extraction ratio at 1 µM [13]: 0.56 | hepatic extraction ratio at 1 µM [14]: 0.56 | hepatic extraction ratio at 1 µM [15]: 0.16 | logD [16]: 2.5 | Vdss [17]: 2.583 L/kg
SMILES: CN(C)S(=O)(=O)NC(=O)[C@@]12C[C@H]1/C=C\CCCCC[C@H](NC(=O)OC(C)(C)C)C(=O)N1C[C@H](OC(=O)N3Cc4ccccc4C3)C[C@H]1C(=O)N2

EC50 [1]: 2350 nM | IC50 [2]: 177 nM
SMILES: CC(C)(C)OC(=O)N[C@H]1CCCCC/C=C\[C@@H]2C[C@@]2(C(=O)O)NC(=O)[C@@H]2C[C@@H](OC(=O)N3CCc4ccccc4C3)CN2C1=O
Ratio [18]: 10

SMILES: CC(C)(C)OC(=O)N[C@H]1CCCCC/C=C\[C@@H]2C[C@@]2(C(=O)NS(=O)(=O)C2CC2)NC(=O)[C@@H]2C[C@@H](OC(=O)N3Cc4cccc(F)c4C3)CN2C1=O [DANOPREVIR]
EC50 [19]: 20 nM | EC50 [20]: 1.6 nM | EC50 [21]: 20 nM | IC50 [22]: 3.5 nM | IC50 [23]: 1.6 nM | IC50 [24]: 0.2 nM | IC50 [25]: 0.2 nM | IC50 [26]: 0.2 nM | IC50 [27]: 0.2 nM | IC50 [28]: 0.2 nM | EC50 [1]: 2.4 nM | IC50 [2]: 1 nM | pKa [29]: 5.27 | Ratio EC50 [30]: 2 | EC50 [31]: 0.5 nM | EC50 [32]: < 0.25 nM | IC50 [33]: 5.7 nM | IC50 [34]: 0.24 nM | Ki [35]: 44.8 nM | Ki [36]: 1 nM | Kp [3]: 10 | AUC(0-t) at 24 h [4]: 9500 ng·h/mL | AUC(0-t) at 24 h [5]: 90800 ng·h/mL | hepatic extraction ratio [6]: 0.04 | efflux ratio [7]: > 2 | Papp A→B [8]: < 2 ×10⁻⁶ cm/s | solubility thermodynamic [9]: 548 µg/mL (≈ 749 µM) | solubility thermodynamic [10]: > 1000 µg/mL | solubility thermodynamic [11]: 0.5 µg/mL (≈ 0.683 µM) | hepatic extraction ratio at 1 µM [12]: 0.23 | hepatic extraction ratio at 1 µM [13]: 0.54 | hepatic extraction ratio at 1 µM [14]: 0.58 | hepatic extraction ratio at 1 µM [15]: 0.06 | logD [16]: 2.1 | Kp [37]: 30 | bioavailability [38]: 78% | bioavailability [39]: 15% | inhibition (INH) [40]: Not Active | Activity [41]: Not Active | INH [42]: 12 µM | INH [43]: > 25 µM | INH [44]: > 25 µM | INH [45]: > 25 µM | INH [46]: > 25 µM | CC50 [47]: 54000 nM | Vdss [17]: 0.155 L/kg
